The values below come from publication PMC5428777, “Molecular Characteristics and Serodiagnostic Potential of Dihydrofolate Reductase from Echinococcus granulosus” (Scientific Reports, 2017).

Where two headings read alike, the source gives them in different places.

What is called IC50 is the concentration at which inhibition is half-maximal. Broadly, the Km is the substrate concentration at which the rate is half of its maximum. In general, Vmax refers to the top rate of the reaction or transport when substrate is in excess.

The target of series [1] is T1, rEg-DHFR (Echinococcus granulosus, UniProt U6JJS2).
T1 sequence (U6JJS2 1-191): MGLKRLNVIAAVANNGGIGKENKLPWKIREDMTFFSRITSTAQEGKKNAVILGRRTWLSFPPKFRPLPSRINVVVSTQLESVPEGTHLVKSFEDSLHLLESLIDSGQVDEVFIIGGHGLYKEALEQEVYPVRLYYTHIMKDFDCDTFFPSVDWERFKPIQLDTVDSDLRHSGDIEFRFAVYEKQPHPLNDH
The series can be described thus: Inhibition of rEg-DHFR enzyme activity by antifolates (DHFR assay kit, absorbance 340 nm). It is filed as biochemical. The protocol: The temperature was controlled at 22 °C.
The IC50 was calculated using GraphPad Prism software by nonlinear curve-fitting.

The test system of series [2] is E. granulosus protoscoleces (PSCs). The series can be described thus: microbe, parasite or virus in culture. Format: cell-based, Echinococcus granulosus. The note with it: for effect on PSCs (protoscolex viability): all three concentrations tested. The protocol: Cysts of E. granulosus were obtained from a slaughterhouse in Qinghai Province, China. The PSCs were separated in sterile conditions and washed three times in phosphate-buffered saline (PBS). Rinsed PSCs were diluted to a concentration of 1,500 mL^−1 and maintained as previously described, [47]. Briefly, PSCs were cultured in RPMI 1640 medium (Hyclone) with 10% fetal bovine serum (Hyclone), 10% hydatid fluid, 100 U.mL^−1 penicillin G and 100 μg.mL^−1 streptomycin (Sigma, USA). Adult worms were collected from the small intestine of a 2-month-old dog 35 days post-infection with 20,000 PSCs. A 5-month-old dog and two 9-week-old female New Zealand white rabbits were obtained from the Laboratory Animal Center of Sichuan Agricultural University. All animals were provided with food pellets and sterilised water ad libitum.
[…]. PSCs incubated with only assay buffer (DHFR assay kit; Sigma) or DMSO were used as negative controls. The vitality of protoscoleces was assessed using a Trypan Blue exclusion test[50], [51]. The daily percentages of PSCs vitality were calculated on six microscopic fields covering approximately 10–20 PSCs. The effect of per drug concentration was monitored in triplicate and in two separate trials.

In series [3] the target is T1, rEg-DHFR. In words: Enzyme kinetics of rEg-DHFR towards substrate DHF (Michaelis-Menten fit). It is filed as biochemical. The conditions noted are these: 0-120 μM DHF, 60 μM NADPH, 22 °C.
Series [4] has as its system E. granulosus protoscoleces (PSCs). More on the design: method as in PMID 11133110. The conditions noted are these: positive control; ref [30]; cited from earlier work.
Substrate in series [5]: Nc1nc2c(c(=O)[nH]1)N=C(CNc1ccc(C(=O)N[C@@H](CCC(=O)O)C(=O)O)cc1)CN2
In words: purified protein, by the assay type. The note with it: other: 0-120 μM DHF, 60 μM NADPH, 22 °C.

[6] abbreviates: 50 μM dihydrofolic acid, 60 μM NADPH, mean ± SD, read-out: IC50 for rEg-DHFR.

For `Nc1nc(N)c2nc(CNc3ccc(C(=O)N[C@@H](CCC(=O)O)C(=O)O)cc3)cnc2n1` [Aminopterin, aminopterin], the IC50 at rEg-DHFR [1] stood at 63.7 ± 6.76 nM. In series [2] (after 7 days of incubation), the “effect on PSCs (protoscolex viability)” value was “slight effect”.
As for `Nc1nc2c(c(=O)[nH]1)N=C(CNc1ccc(C(=O)N[C@@H](CCC(=O)O)C(=O)O)cc1)CN2` [DHF, 7,8-dihydrofolate], the “Vmax of rEg-DHFR for substrate DHF” value at rEg-DHFR [3] worked out at 2.384 ± 0.01874 µmol/min/mg.
Consider `CN(Cc1cnc2nc(N)nc(N)c2n1)c1ccc(C(=O)N[C@@H](CCC(=O)O)C(=O)O)cc1` [Methotrexate, methotrexate], for which the “effect on PSCs (protoscolex viability)” value in series [2] (after 7 days of incubation) is recorded as “slight effect”.
For `O=C(C1CCCCC1)N1CC(=O)N2CCc3ccccc3C2C1` (stereo not drawn) [Praziquantel], the protoscolicidal activity entry in series [4] is reported as “exhibit protoscolicidal activity”.
On to `CCc1nc(N)nc(N)c1-c1ccc(Cl)cc1` [Pyrimethamine, pyrimethamine], for which the IC50 at rEg-DHFR [1] (setting [6]) was found to be 860 ± 93.5 nM. The “percentage vitality of PSCs” value in series [2] (800 μM, after 7 days of incubation, control 82.65 ± 6.11%) was 20.67 ± 2.49%.
`COc1cc(Cc2cnc(N)nc2N)cc(OC)c1OC` [Trimethoprim, trimethoprim]: the IC50 on rEg-DHFR [1] (setting [6]) came out at 30800 ± 2090 nM. Also, the viability at 3000 µM in series [2] (Echinococcus granulosus, 168 h, read-out: PSCs remaining viable in culture) was 38.7 ± 6.18%.

B1: human DHFR (Homo sapiens) (protein)
chain: MVGSLNCIVAVSQNMGIGKNGDLPWPPLRNEFRYFQRMTTTSSVEGKQNLVIMGKKTWFSIPEKNRPLKGRINLVLSRELKEPPQGAHFLSRSLDDALKLTEQPELANKVDMVWIVGGSSVYKEAMNHPGHLKLFVTRIMQDFESDTFFPEIDLEKYKLLPEYPGVLSDVQEEKGIKYKFEVYEKND
As for B1, in series [5], the Michaelis-Menten constant (Km) is 14.61 ± 0.6590 µM and the Vmax came to 3.370 ± 0.02327 µmol/min/mg.

B2: rEg-DHFR (Echinococcus granulosus) (protein)
chain: MGLKRLNVIAAVANNGGIGKENKLPWKIREDMTFFSRITSTAQEGKKNAVILGRRTWLSFPPKFRPLPSRINVVVSTQLESVPEGTHLVKSFEDSLHLLESLIDSGQVDEVFIIGGHGLYKEALEQEVYPVRLYYTHIMKDFDCDTFFPSVDWERFKPIQLDTVDSDLRHSGDIEFRFAVYEKQPHPLNDH
As to B2, the Km in series [5] turned out to be 18.74 ± 0.5651 µM.
